Assays:
[1] = Preclinical oral studies in rats (bioavailability, portal blood, tolerability)
[2] = system: patients with PD; assay: Phase 2 trial Stage 2: circadian rhythm of wrist skin temperature (I-Button); assay type: in vivo, human
Method: FIGS. 20A-F show the effect of squalamine (ENT-01) on circadian rhythm. The figures depict the results of circadian non-parametric analysis of wrist skin temperature rhythm throughout each condition (baseline, treatment with highest dose of squalamine (ENT-01) and washout). The following parameters were measured: […] (FIG. 20A), inter-daily stability (IS) (FIG. 20B), relative amplitude (RA) (FIG. 20C), circadian function index (FIG. 20D), M5V (FIG. 20E), which refers to the five consecutive hours with the highest temperature or high somnolence, and L10V (FIG. 20F), which indicates the mean of the ten consecutive hours with lowest temperature or high activation. […] Student's paired t-test, *p<0.05, **p<01, ***p<0.001.Values expressed as mean±SEM (n=12 in each condition).
(6) I-Button Temperature Assessment. […] From the collected data, the mesor, amplitude, acrophase (time of peak temperature), Rayleight test (an index of interdaily stability), mean waveforms are calculated.);
Circadian rhythm of skin temperature was evaluable in 12 patients (i.e., those who had recordings that extended from baseline through washout). Circadian system functionality was evaluated by continuously monitoring wrist skin temperature using a temperature sensor (Thermochron iButton DS1921H; Maxim, Dallas, Tex.) (Sarabia et al. 2008). […]

[3] = system: C. elegans model of PD; conditions: cited from earlier work
[4] = system: colons from WT (1 yr old FVB/NJ) mice; assay: Isolated colon motility, WT mice; design: species or system mouse
Text: FIGS. 14A-14B show additional effects of squalamine in mice.
(§1) Parkinson's disease is associated with varying degrees of constipation, typically beginning decades before diagnosis, and all too often has a profound negative impact on quality of life. It is believed that the ENS in PD is damaged earlier but by the same processes that damage the neurons of the CNS. In our clinical experience oral administration to several individuals with advanced Parkinson's disease corrected long standing constipation within days of initiation of treatment. We explored whether the human experience could be reproduced in the mouse. In the experiments illustrated below studies of colonic motility were conducted using organs from WT (1 yr old FVB/NJ) or PD mice, in which the murine αSynuclein gene has been excised and replaced by several copies of the human αSynuclein gene driven by the normal murine promoter.
(§2) The isolated colon from the PD strain presents a more sluggish peristaltic wave than that from the WT animal (black columns).

[5] = system: colons from PD mice; assay: Isolated colon motility, PD mice (human αSynuclein gene); design: species or system mouse
Text: as §1, §2

SMILES	absorption from the intestine ([1]; portal blood concentrations following oral dosing of radioactive ENT-01 to rats)	tolerability ([1]; rats)	oral bioavailability ([1]; rats, preclinical studies)	markers of healthy circadian function (IS, RA, CFI, IV) ([2]; fixed dose vs baseline, 12 patients)	circadian parameters (IS, CFI) ([2]; wash-out period)	formation of aggregates of αS ([3]; in vivo (Perni et al. 2017))	speed of the colonic peristaltic wave ([4]; WT colon, FIG. 14B)	force of peristaltic contractions ([4]; WT colon, squalamine added to lumen, FIG. 14A)	colon migrating motor complex (MMC) peak pressure waves ([4]; intraluminal application, legend of FIG. 14A)	MMC propagation velocity from oral to anal ([4]; intraluminal application, legend of FIG. 14B)	speed of the colonic peristaltic wave ([5]; FIG. 14B)	force of peristaltic contractions ([5]; squalamine added to lumen, FIG. 14A)	muscle paralysis ([3]; C. elegans model of PD (Perni et al. 2017))
CC(C)[C@@H](CC[C@@H](C)[C@H]1CC[C@H]2[C@@H]3[C@H](O)C[C@H]4C[C@@H](NCCCNCCCCN)CC[C@]4(C)[C@H]3CC[C@]12C)OS(=O)(=O)O (single isomer, unassigned; ent-01) [ENT-01]	low	well tolerated	about 0.1%	improved all markers of healthy circadian function	improvement persisted	inhibit the formation of aggregates	–	–	–	–	–	–	–
CC(C)[C@@H](CC[C@@H](C)[C@H]1CC[C@H]2[C@@H]3[C@H](O)C[C@H]4C[C@@H](NCCCNCCCCN)CC[C@]4(C)[C@H]3CC[C@]12C)OS(=O)(=O)O [squalamine]	–	–	–	–	–	–	stimulates the speed of the colonic peristaltic wave	increases the force of contractions	no apparent effect	increased	normalizing the PD colon to that of the unstimulated WT mouse	increases the force of contractions	complete reversal of muscle paralysis

Reference: US11083735B2, “Methods for treating sleep disorders, sleep disturbances, and related symptoms using aminosterol compositions” (Enterin, Inc., priority 2017, dated 2021)
